Data published in patent publication US20260015350A1, “AZAQUINAZOLINE PAN-KRAS INHIBITORS” (Mirati Therapeutics, Inc., priority 2022, published 2026).

Legend:
KRas^G12R = target: T1, KRas^G12R (Homo sapiens, UniProt P01116, G12R); test: KRas binding assay (TR-FRET tracer displacement), KRas G12R
T1 construct: Biotinylated KRas (corresponding to amino acids 1-169, produced at Accelegan Inc.); biotin (biotinylated); purchased Accelegan Inc

[1] = test system: KRas-mediated phosphorylation of ERK in HCT116 cells; test: Inhibition of KRas-mediated phosphorylation of ERK (Cisbio HTRF pERK), HCT116 cells; format: cell-based; details: Homo sapiens; for IC50: HCT-116, HTRF pERK; for inhibition at 0.1 µM: HCT-116, 3 h, single point, 100 nM compound, 3 hrs
In short: (§1)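 Using 6,000 cells per well, compounds are applied for 3 hrs and cells then lysed at 4° C with shaking for 40 mins. Phospho-ERK is measured by HTRF after 2 hrs of lysate incubation with the d2/Cryptate antibody mixture.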

[2] = test system: KRas-mediated phosphorylation of ERK in A549 cells; test: Inhibition of KRas-mediated phosphorylation of ERK (Cisbio HTRF pERK), A549 cells; format: cell-based; details: Homo sapiens, HTRF pERK
In short: as §1

[3] = test system: KRas-mediated phosphorylation of ERK in AsPC-1 cells; test: Inhibition of KRas-mediated phosphorylation of ERK (Cisbio HTRF pERK), AsPC-1 cells; format: cell-based; details: Homo sapiens, ASPC1, AsPC-1 cells; HTRF pERK
In short: (§2)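 Each compound was tested at 10 concentrations, threefold apart with 10 uM the highest, for 3 hrs on 6,000 seeded cells; final DMSO was 0.8% and Trametinib (0.2 uM) served as Min control. Lysed cells were analysed for pERK by HTRF.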

[4] = test system: KRas-mediated phosphorylation of ERK in PSN1 cells; test: Inhibition of KRas-mediated phosphorylation of ERK (Cisbio HTRF pERK), PSN1 cells; format: cell-based; details: Homo sapiens
In short: (§3)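 HTRF pERK read-out; 6,000 cells/well, RPMI_10% FBS, overnight 37° C./5% CO2; 4 h covered incubation at RT before reading.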

[5] = test system: KRas-mediated phosphorylation of ERK in H460 cells; test: Inhibition of KRas-mediated phosphorylation of ERK (Cisbio HTRF pERK), H460 cells; format: cell-based; details: Homo sapiens; for IC50: NCI-H460, HTRF pERK; for inhibition at 0.1 µM: NCI-H460, 3 h, single point, 100 nM compound, 3 hrs
In short: as §2

[6] = test system: KRas-mediated phosphorylation of ERK in H727 cells; test: Inhibition of KRas-mediated phosphorylation of ERK (Cisbio HTRF pERK), H727 cells; format: cell-based; details: Homo sapiens, NCI-H727, H727 cells; HTRF pERK
In short: as §2

KRas^G12V = target: T2, KRas^G12V (Homo sapiens, UniProt P01116, G12V); test: KRas binding assay (TR-FRET tracer displacement), KRas G12V
T2 construct: Biotinylated KRas (corresponding to amino acids 1-169, produced at Accelegan Inc.); biotin (biotinylated); purchased Accelegan Inc

[7] = test system: KRas-mediated phosphorylation of ERK in MKN1 cells; test: Inhibition of KRas-mediated phosphorylation of ERK (Cisbio HTRF pERK), MKN1 cells; format: cell-based; details: Homo sapiens, MKN-1
In short: as §3

KRas^G12D = target: T3, KRas^G12D (Homo sapiens, UniProt P01116, G12D); test: KRas binding assay (TR-FRET tracer displacement), KRas G12D
T3 construct: Biotinylated KRas (corresponding to amino acids 1-169, produced at Accelegan Inc.); biotin (biotinylated); purchased Accelegan Inc
T3 sequence (P01116 1-169 isoform P01116-2 G12D): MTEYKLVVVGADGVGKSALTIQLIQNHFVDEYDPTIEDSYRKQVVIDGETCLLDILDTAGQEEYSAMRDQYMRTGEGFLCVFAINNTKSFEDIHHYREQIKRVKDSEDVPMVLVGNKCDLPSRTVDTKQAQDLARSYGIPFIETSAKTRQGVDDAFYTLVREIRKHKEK

T1 sequence (P01116 1-169 isoform P01116-2 G12R): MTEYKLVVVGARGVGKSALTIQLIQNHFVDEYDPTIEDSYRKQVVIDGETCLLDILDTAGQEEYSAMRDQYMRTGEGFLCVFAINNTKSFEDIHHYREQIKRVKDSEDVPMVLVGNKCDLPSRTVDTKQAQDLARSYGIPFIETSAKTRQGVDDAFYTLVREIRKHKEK
T2 sequence (P01116 1-169 isoform P01116-2 G12V): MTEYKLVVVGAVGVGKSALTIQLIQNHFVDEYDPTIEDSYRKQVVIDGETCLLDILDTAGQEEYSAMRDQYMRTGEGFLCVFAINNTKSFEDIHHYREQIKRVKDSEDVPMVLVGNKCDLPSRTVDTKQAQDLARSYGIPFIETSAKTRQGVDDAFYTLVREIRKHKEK

Row | Compound | IC50 (KRas^G12R) [nM] | IC50 [1] [nM] | IC50 [2] [nM] | IC50 [3] [nM] | IC50 [4] [nM] | IC50 [5] [nM] | IC50 [6] [nM] | IC50 (KRas^G12V) [nM] | IC50 [7] [nM] | IC50 (KRas^G12D) [nM] | inhibition at 0.1 µM [1] [%] | inhibition at 0.1 µM [5] [%]
1 | CCc1c(F)ccc2cc(O)cc(-c3ncc4c(N5CCCc6ncccc6C5)nc(OC[C@@]56CCCN5C[C@H](F)C6)nc4c3F)c12 [Example 579, 5-ethyl-6-fluoro-4-(8-fluoro-2-(((2R,7aS)-2-fluorotetrahydro-1H-pyrrolizin-7a(5H)-yl)methoxy)-4-(5,7,8,9-tetrahydro-6H-pyrido[3,2-c]azepin-6-yl)pyrido[4,3-d]pyrimidin-7-yl)naphthalen-2-ol] | 3 | 1780 | 357 | 155 | > 10000 | 481 | 369 | 6 | 37 | 5 | – | –
2 | CCc1c(F)ccc2cc(O)cc(-c3ncc4c(N5CCC(Cn6cccn6)C5)nc(OC[C@@]56CCCN5C[C@H](F)C6)nc4c3F)c12 (stereo partly drawn) [Example 587, 4-(4-(3-((1H-pyrazol-1-yl)methyl)pyrrolidin-1-yl)-8-fluoro-2-(((2R,7aS)-2-fluorotetrahydro-1H-pyrrolizin-7a(5H)-yl)methoxy)pyrido[4,3-d]pyrimidin-7-yl)-5-ethyl-6-fluoronaphthalen-2-ol] | 74 | – | – | 2070 | > 10000 | – | 3090 | 64 | 926 | 323 | -12 | 6
3 | CCc1c(F)ccc2cc(O)cc(-c3ncc4c(N5CCCC6(CNS(=O)(=O)C6)C5)nc(OC[C@@]56CCCN5C[C@H](F)C6)nc4c3F)c12 (stereo partly drawn) [Example 644, 7-(7-(8-ethyl-7-fluoro-3-hydroxynaphthalen-1-yl)-8-fluoro-2-(((2R,7aS)-2-fluorohexahydro-1H-pyrrolizin-7a-yl)methoxy)pyrido[4,3-d]pyrimidin-4-yl)-2-thia-3,7-diazaspiro[4.5]decane 2,2-dioxide] | < 2 | 411 | 299 | 147 | 2620 | 160 | 340 | < 2 | 10 | 3 | – | –
4 | CCc1c(F)ccc2cc(O)cc(-c3ncc4c(N5CCCc6nc(C(=O)N(C)C)ccc6C5)nc(OC[C@@]56CCCN5C[C@H](F)C6)nc4c3F)c12 [Example 666, 6-(7-(8-ethyl-7-fluoro-3-hydroxynaphthalen-1-yl)-8-fluoro-2-(((2R,7aS)-2-fluorohexahydro-1H-pyrrolizin-7a-yl)methoxy)pyrido[4,3-d]pyrimidin-4-yl)-N,N-dimethyl-6,7,8,9-tetrahydro-5H-pyrido[3,2-c]azepine-2-carboxamide] | < 2 | – | 207 | 184 | > 10000 | – | 320 | 2 | 18 | < 2 | 24 | 59
5 | CCc1c(F)ccc2cc(O)cc(-c3ncc4c(N5CCCn6nc(S(=O)(=O)N(C)C)cc6C5)nc(OC[C@@]56CCCN5C[C@H](F)C6)nc4c3F)c12 [Example 685, 5-(7-(8-ethyl-7-fluoro-3-hydroxynaphthalen-1-yl)-8-fluoro-2-(((2R,7aS)-2-fluorohexahydro-1H-pyrrolizin-7a-yl)methoxy)pyrido[4,3-d]pyrimidin-4-yl)-N,N-dimethyl-5,6,7,8-tetrahydro-4H-pyrazolo[1,5-a][1,4]diazepine-2-sulfonamide] | 6 | 359 | 1090 | 245 | > 10000 | 188 | 1670 | 8 | 9 | < 2 | – | –

More lines, main results first:

Row | IC50 (KRas^G12R) [nM] | IC50 [1] [nM] | IC50 [2] [nM] | IC50 [3] [nM] | IC50 [4] [nM] | IC50 [5] [nM] | IC50 [6] [nM] | IC50 (KRas^G12V) [nM] | IC50 [7] [nM] | IC50 (KRas^G12D) [nM] | Compound | inhibition at 0.1 µM [1] [%] | inhibition at 0.1 µM [5] [%]
6 | 4 | 517 | 174 | 617 | > 10000 | 165 | 216 | 6 | 22 | 12 | CCc1c(F)ccc2cc(O)cc(-c3ncc4c(N5C[C@H](F)C[C@@H](OC)C5)nc(OC[C@@]56CCCN5C[C@H](F)C6)nc4c3F)c12 [Example 557, 5-ethyl-6-fluoro-4-(8-fluoro-4-((3R,5R)-3-fluoro-5-methoxypiperidin-1-yl)-2-(((2R,7aS)-2-fluorohexahydro-1H-pyrrolizin-7a-yl)methoxy)pyrido[4,3-d]pyrimidin-7-yl)naphthalen-2-ol] | – | –
7 | 7 | – | – | 3420 | > 10000 | – | 1130 | 5 | 78 | 7 | CCc1c(F)ccc2cc(O)cc(-c3ncc4c(N5CCCC(O)(C(N)=O)C5)nc(OC[C@@]56CCCN5C[C@H](F)C6)nc4c3F)c12 (stereo partly drawn) [Example 574, 1-(7-(8-ethyl-7-fluoro-3-hydroxynaphthalen-1-yl)-8-fluoro-2-(((2R,7aS)-2-fluorohexahydro-1H-pyrrolizin-7a-yl)methoxy)pyrido[4,3-d]pyrimidin-4-yl)-3-hydroxypiperidine-3-carboxamide] | 18 | 19
8 | 41 | – | – | 1370 | > 10000 | – | 1170 | 39 | 527 | 160 | CCc1c(F)ccc2cc(O)cc(-c3ncc4c(N5CCC(C)C(F)(F)CC5)nc(OC[C@@]56CCCN5C[C@H](F)C6)nc4c3F)c12 (stereo partly drawn) [Example 581, 4-(4-(4,4-difluoro-5-methylazepan-1-yl)-8-fluoro-2-(((2R,7aS)-2-fluorotetrahydro-1H-pyrrolizin-7a(5H)-yl)methoxy)pyrido[4,3-d]pyrimidin-7-yl)-5-ethyl-6-fluoronaphthalen-2-ol] | 21 | -24
9 | 7 | – | – | 1230 | > 10000 | – | 391 | 10 | 293 | 72 | CCc1c(F)ccc2cc(O)cc(-c3ncc4c(N5CCCC(C6(O)CCC6)C5)nc(OC[C@@]56CCCN5C[C@H](F)C6)nc4c3F)c12 (stereo partly drawn) [Example 593, 5-ethyl-6-fluoro-4-(8-fluoro-2-(((2R,7aS)-2-fluorotetrahydro-1H-pyrrolizin-7a(5H)-yl)methoxy)-4-(3-(1-hydroxycyclobutyl)piperidin-1-yl)pyrido[4,3-d]pyrimidin-7-yl)naphthalen-2-ol] | -4 | 0
10 | 3 | – | – | 690 | > 10000 | – | 948 | < 2 | 123 | < 2 | CCc1c(F)ccc2cc(O)cc(-c3ncc4c(N5CCC[C@@](C)(O)C5)nc(OCC5(CNC)CC5)nc4c3F)c12 [Example 696, (R)-1-(7-(8-ethyl-7-fluoro-3-hydroxynaphthalen-1-yl)-8-fluoro-2-((1-((methylamino)methyl)cyclopropyl)methoxy)pyrido[4,3-d]pyrimidin-4-yl)-3-methylpiperidin-3-ol] | 5 | 21
